# Assay results published in ChEMBL document CHEMBL5316263, “Structure-Based Discovery of Selective Histone Deacetylase 8 Degraders with Potent Anticancer Activity” (J Med Chem, 2023).
# The source made the active and inactive calls. The calls are words filed in the database; no cut-off is given here.
# Experiments:
# A549 [1] = assay: Effect on OASL gene in human A549 cells at 10 uM measured after 20 hrs by RNA sequencing analysis; assay type: functional, cell-based
# Jurkat = assay: Antiproliferative activity against human Jurkat cells at 0.1 to 10 uM measured after 72 hrs by CCK-8 method; assay type: functional, cell-based; settings: dose 0.1-10 µM
# A549 [2] = assay: Induction of apoptosis in human A549 cells assessed as necrotic cells at 2.5 uM incubated for 72 hrs by annexin V-FITC staining based flow cytometry relative to control; assay type: functional
# A549 [3] = assay: Induction of apoptosis in human A549 cells assessed as viable cells at 20 uM incubated for 72 hrs by annexin V-FITC staining based flow cytometry (reference value: 99.9%); assay type: functional; settings: read-out: Activity
# A549 [4] = assay: Antitumor activity against human A549 cells xenografted in NOD/SCID mouse assessed as increase in number of necrotic cells at 5 mg/kg, ip administered every 5 days measured at day 30 under irradiation condition by H and E staining based analysis; assay type: functional, organism-based; settings: time 30.0 day
# A549 [5] = assay: Antiproliferative activity against human A549 cells assessed as inhibition of cell growth measured after 72 hrs under irradiation by CCK-8 method; assay type: functional, cell-based; settings: A549, light or radiation study
# [6] = target: Protein cereblon/Histone deacetylase 9 (Homo sapiens) (UniProt Q9UKV0+Q96SW2); assay: Protac activity at CRBN/HDAC9 in human A549 cells assessed as degradation of HDAC9 at 0.1 to 10 uM by Western blot analysis; assay type: cell-based; settings: dose 0.1-10 µM
# A549 [7] = assay: Synergistic antiproliferative activity against human A549 cells assessed as combination index measured after 72 hrs under irradiation by CCK-8 method; assay type: functional
# [8] = target: Protein cereblon/Protein deacetylase HDAC6 (Homo sapiens) (UniProt Q9UBN7+Q96SW2); assay: Protac activity at CRBN/HDAC6 in human A549 cells assessed as reduction in HDAC6 protein level at 0.1 to 10 uM by Western blot analysis; assay type: cell-based; settings: dose 0.1-10 µM
# [9] = target: Protein cereblon/NAD-dependent protein deacetylase sirtuin-7 (Homo sapiens) (UniProt Q9NRC8+Q96SW2); assay: Protac activity at CRBN/Sirt7 in human A549 cells assessed as reduction in Sirt7 protein level at 0.1 to 10 uM by Western blot analysis; assay type: cell-based; settings: dose 0.1-10 µM
# A549 [10] = assay: Induction of apoptosis in human A549 cells assessed as viable cells at 2.5 uM incubated for 72 hrs by annexin V-FITC staining based flow cytometry (reference value: 99.9%); assay type: functional; settings: read-out: Activity
# A549 [11] = assay: Effect on NPTX1 gene in human A549 cells at 10 uM measured after 20 hrs by RNA sequencing analysis; assay type: functional, cell-based
# A549 [12] = assay: Inhibition of DNA damage repair in human A549 cells assessed as reduction in Ku80 protein level at 5 uM incubated for 24 hrs by immunofluorescence staining based analysis; assay type: functional, cell-based
# A549 [13] = assay: Inhibition of DNA damage repair in human A549 cells assessed as decrease in gamma-H2AX level at 5 uM incubated for 24 hrs followed by irradiation for 4 hrs by immunofluorescence staining based analysis; assay type: functional, cell-based
# A549 [14] = assay: Induction of apoptosis in human A549 cells assessed as necrotic cells at 20 uM incubated for 72 hrs by annexin V-FITC staining based flow cytometry relative to control; assay type: functional
# [15] = target: T1, Protein cereblon/Histone deacetylase 8 (Homo sapiens) (UniProt Q9BY41+Q96SW2); assay: Protac activity at CRBN/HDAC8 in human A549 cells assessed as reduction in HDAC8 protein levels at 10 uM measured after 16 hrs by Western blot analysis; assay type: cell-based
# A549 [16] = assay: Effect on TIPARP gene in human A549 cells at 10 uM measured after 20 hrs by RNA sequencing analysis; assay type: functional, cell-based
# A549 [17] = assay: Induction of apoptosis in human A549 cells assessed as early apoptotic cells at 5 uM by annexin V-FITC staining based flow cytometry (reference value: 0%); assay type: functional
# [18] = target: Protein cereblon/Histone deacetylase 3 (Homo sapiens) (UniProt O15379+Q96SW2); assay: Protac activity at CRBN/HDAC3 in human A549 cells assessed as reduction in HDAC3 protein level at 0.1 to 10 uM by Western blot analysis; assay type: cell-based; settings: dose 0.1-10 µM
# [19] = target: Protein cereblon/Histone deacetylase 2 (Homo sapiens) (UniProt Q92769+Q96SW2); assay: Protac activity at CRBN/HDAC2 in human A549 cells assessed as reduction in HDAC2 protein level at 0.1 to 10 uM by Western blot analysis; assay type: cell-based; settings: dose 0.1-10 µM
# [20] = target: T1, Protein cereblon/Histone deacetylase 8 (Homo sapiens); assay: Protac activity at CRBN/HDAC8 in human HBEC3-KT cells at 0.1 to 10 uM measured after 20 hrs by Western blot analysis; assay type: cell-based; settings: dose 0.1-10 µM
# A549 [21] = assay: Induction of apoptosis in human A549 cells assessed as late apoptotic cells at 1.25 uM incubated for 72 hrs by annexin V-FITC staining based flow cytometry (reference value: 0.048%); assay type: functional
# A549 [22] = assay: Induction of apoptosis in human A549 cells assessed as necrotic cells at 10 uM incubated for 72 hrs by annexin V-FITC staining based flow cytometry relative to control; assay type: functional
# A549 [23] = assay: Effect on FSTL4 gene in human A549 cells at 10 uM measured after 20 hrs by RNA sequencing analysis; assay type: functional, cell-based
# A549 [24] = assay: Downregulation of HSPA6 in human A549 cells measured after 20 hrs by proteomic analysis; assay type: functional, cell-based
# A549 [25] = assay: Downregulation of IL6ST in human A549 cells measured after 20 hrs by proteomic analysis; assay type: functional, cell-based
# [26] = target: T1, Protein cereblon/Histone deacetylase 8 (Homo sapiens); assay: Protac activity at CRBN/HDAC8 in human Jurkat cells at 0.1 to 10 uM measured after 20 hrs by Western blot analysis; assay type: cell-based; settings: dose 0.1-10 µM
# [27] = target: T1, Protein cereblon/Histone deacetylase 8 (Homo sapiens); assay: In vivo protac activity at CRBN/HDAC8 in human A549 cells xenografted in NOD/SCID mouse assessed as degradation of HDAC8 at 5 mg/kg, ip administered every 5 days measured at day 30 under irradiation condition by Western blot analysis; assay type: functional, organism-based; settings: time 30.0 day
# A549 [28] = assay: Induction of apoptosis in human A549 cells assessed as viable cells at 5 uM incubated for 72 hrs by annexin V-FITC staining based flow cytometry (reference value: 99.9%); assay type: functional; settings: read-out: Activity
# [29] = target: T2, Histone deacetylase 8 (Homo sapiens) (UniProt Q9BY41); assay: Induction of degradation in HDAC8 in human A549 cells incubated for 20 hrs by proteomic analysis; assay type: cell-based
# T2 sequence (whole entry): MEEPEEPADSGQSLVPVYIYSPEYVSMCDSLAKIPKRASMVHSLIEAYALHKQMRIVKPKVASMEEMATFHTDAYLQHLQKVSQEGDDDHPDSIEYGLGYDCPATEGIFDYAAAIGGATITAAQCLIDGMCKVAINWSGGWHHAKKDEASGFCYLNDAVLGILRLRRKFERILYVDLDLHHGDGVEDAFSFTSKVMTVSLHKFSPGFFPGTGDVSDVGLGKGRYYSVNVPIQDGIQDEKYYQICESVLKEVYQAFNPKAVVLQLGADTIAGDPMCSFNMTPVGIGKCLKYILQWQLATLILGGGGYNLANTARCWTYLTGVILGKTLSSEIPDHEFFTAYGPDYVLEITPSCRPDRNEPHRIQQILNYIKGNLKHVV
# A549 [30] = assay: Induction of apoptosis in human A549 cells assessed as necrotic cells at 5 uM incubated for 48 hrs by annexin V FITC and propidium iodide based flow cytometry relative to control; assay type: functional
# T1 sequence (Q96SW2 whole entry, looked up, one chain of several): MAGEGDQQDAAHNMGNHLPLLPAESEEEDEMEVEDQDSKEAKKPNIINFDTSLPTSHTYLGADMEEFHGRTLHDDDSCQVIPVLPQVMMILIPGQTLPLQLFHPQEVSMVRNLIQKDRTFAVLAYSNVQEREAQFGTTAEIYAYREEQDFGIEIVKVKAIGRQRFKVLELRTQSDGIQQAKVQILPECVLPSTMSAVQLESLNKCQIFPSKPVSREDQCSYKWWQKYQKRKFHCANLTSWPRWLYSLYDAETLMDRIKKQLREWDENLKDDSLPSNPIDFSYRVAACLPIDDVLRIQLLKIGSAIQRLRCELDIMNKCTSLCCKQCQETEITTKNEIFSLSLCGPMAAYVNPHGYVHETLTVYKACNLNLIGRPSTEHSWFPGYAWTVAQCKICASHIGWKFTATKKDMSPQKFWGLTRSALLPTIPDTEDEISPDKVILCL
# Chain of Protein cereblon/Histone deacetylase 2 (Homo sapiens) (Q92769 whole entry, looked up): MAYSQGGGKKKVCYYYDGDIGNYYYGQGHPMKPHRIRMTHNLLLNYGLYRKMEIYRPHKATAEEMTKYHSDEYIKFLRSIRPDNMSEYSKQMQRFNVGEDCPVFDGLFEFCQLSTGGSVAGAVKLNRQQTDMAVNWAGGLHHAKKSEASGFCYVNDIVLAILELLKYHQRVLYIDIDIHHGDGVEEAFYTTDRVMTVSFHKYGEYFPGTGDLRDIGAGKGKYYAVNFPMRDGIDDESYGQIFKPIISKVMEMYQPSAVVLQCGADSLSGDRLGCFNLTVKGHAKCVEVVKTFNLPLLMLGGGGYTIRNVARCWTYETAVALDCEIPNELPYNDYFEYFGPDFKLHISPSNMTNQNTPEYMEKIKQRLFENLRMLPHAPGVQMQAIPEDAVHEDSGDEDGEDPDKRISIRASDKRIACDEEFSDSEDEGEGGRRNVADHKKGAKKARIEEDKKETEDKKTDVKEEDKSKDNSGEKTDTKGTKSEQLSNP
# Chain of Protein cereblon/Histone deacetylase 2 (Homo sapiens) (Q96SW2 whole entry, looked up): as the sequence (Q96SW2 whole entry, looked up, one chain of several) above
# Chain of Protein cereblon/NAD-dependent protein deacetylase sirtuin-7 (Homo sapiens) (Q96SW2 whole entry, looked up): as the sequence (Q96SW2 whole entry, looked up, one chain of several) above
# Chain of Protein cereblon/NAD-dependent protein deacetylase sirtuin-7 (Homo sapiens) (Q9NRC8 whole entry, looked up): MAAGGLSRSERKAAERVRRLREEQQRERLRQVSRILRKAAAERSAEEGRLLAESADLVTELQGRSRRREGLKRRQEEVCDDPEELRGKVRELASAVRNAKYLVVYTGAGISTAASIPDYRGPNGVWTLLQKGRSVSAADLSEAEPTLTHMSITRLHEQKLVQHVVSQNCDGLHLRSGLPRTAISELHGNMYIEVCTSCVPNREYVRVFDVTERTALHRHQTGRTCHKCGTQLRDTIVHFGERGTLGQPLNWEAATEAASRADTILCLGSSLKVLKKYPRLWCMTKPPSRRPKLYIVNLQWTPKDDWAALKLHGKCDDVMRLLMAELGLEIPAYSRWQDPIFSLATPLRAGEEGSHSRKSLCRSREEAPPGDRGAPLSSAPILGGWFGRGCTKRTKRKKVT
# Chain of Protein cereblon/Histone deacetylase 9 (Homo sapiens) (Q96SW2 whole entry, looked up): as the sequence (Q96SW2 whole entry, looked up, one chain of several) above
# Chain of Protein cereblon/Histone deacetylase 9 (Homo sapiens) (Q9UKV0 whole entry, looked up): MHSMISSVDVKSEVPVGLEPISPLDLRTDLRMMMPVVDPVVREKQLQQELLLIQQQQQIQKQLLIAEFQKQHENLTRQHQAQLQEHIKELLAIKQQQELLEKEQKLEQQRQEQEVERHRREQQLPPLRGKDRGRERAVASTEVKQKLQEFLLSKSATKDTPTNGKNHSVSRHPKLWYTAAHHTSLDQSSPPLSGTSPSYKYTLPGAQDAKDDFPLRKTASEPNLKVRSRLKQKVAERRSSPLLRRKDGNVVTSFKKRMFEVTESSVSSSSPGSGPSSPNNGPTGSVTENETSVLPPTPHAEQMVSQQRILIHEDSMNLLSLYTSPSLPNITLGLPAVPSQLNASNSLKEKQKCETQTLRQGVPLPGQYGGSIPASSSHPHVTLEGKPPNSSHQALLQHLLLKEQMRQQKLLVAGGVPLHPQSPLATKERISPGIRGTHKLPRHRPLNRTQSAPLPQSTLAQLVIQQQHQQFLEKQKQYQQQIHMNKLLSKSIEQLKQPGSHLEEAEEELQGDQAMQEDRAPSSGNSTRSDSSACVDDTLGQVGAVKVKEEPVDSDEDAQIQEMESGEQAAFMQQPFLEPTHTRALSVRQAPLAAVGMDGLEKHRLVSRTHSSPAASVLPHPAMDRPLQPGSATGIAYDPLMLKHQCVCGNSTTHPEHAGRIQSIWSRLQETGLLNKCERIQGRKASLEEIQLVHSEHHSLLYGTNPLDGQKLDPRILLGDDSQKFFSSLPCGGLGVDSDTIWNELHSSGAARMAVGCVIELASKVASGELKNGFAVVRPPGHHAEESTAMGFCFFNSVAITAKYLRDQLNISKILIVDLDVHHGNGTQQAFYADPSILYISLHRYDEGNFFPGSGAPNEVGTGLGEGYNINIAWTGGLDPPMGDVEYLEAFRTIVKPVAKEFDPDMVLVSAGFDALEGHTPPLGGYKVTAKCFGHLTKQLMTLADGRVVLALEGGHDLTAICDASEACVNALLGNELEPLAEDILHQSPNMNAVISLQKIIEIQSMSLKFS
# Chain of Protein cereblon/Protein deacetylase HDAC6 (Homo sapiens) (Q96SW2 whole entry, looked up): as the sequence (Q96SW2 whole entry, looked up, one chain of several) above
# Chain of Protein cereblon/Protein deacetylase HDAC6 (Homo sapiens) (Q9UBN7 whole entry, looked up): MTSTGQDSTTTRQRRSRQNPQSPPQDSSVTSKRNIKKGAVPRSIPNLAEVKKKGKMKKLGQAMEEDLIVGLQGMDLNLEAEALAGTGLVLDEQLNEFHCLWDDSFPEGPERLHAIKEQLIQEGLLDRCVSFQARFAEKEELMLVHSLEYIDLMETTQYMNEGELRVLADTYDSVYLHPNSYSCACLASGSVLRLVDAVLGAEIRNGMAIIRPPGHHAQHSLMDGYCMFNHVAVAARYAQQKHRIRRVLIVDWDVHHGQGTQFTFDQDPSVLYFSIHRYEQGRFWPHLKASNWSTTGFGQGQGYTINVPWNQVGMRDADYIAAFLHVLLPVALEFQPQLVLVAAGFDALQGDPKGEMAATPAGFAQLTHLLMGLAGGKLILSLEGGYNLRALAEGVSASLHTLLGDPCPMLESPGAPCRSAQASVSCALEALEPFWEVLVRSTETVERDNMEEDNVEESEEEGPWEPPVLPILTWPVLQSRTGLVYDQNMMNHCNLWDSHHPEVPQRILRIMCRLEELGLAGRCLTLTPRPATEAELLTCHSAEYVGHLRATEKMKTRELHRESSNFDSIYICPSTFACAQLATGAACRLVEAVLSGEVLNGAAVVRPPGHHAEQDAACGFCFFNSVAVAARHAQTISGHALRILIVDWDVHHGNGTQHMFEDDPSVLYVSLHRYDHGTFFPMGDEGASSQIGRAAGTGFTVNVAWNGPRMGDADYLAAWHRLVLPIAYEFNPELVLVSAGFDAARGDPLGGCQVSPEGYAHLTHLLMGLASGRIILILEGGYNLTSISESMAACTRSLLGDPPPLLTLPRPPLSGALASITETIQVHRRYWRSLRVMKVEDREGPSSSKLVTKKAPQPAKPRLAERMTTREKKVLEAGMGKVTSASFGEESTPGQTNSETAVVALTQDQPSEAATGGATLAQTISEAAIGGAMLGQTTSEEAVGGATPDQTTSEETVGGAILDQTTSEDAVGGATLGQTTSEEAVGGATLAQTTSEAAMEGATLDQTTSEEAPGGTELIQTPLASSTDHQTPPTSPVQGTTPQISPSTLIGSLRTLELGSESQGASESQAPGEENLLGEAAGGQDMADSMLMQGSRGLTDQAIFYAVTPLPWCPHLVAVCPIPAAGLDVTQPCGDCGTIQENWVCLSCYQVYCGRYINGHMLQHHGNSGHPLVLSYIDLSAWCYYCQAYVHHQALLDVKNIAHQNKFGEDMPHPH
# Chain of Protein cereblon/Histone deacetylase 3 (Homo sapiens) (O15379 whole entry, looked up): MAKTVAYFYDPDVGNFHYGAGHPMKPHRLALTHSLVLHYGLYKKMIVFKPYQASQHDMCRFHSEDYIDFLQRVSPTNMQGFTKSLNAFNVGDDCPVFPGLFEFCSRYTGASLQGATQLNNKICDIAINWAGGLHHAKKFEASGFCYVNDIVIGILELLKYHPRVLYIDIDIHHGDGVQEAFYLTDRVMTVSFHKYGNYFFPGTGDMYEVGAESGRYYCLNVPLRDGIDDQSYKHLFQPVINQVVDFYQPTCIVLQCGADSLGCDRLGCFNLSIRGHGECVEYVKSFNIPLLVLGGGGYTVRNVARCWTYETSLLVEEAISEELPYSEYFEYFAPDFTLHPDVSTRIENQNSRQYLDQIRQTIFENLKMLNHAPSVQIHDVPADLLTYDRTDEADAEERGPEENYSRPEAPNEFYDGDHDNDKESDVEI
# Chain of Protein cereblon/Histone deacetylase 3 (Homo sapiens) (Q96SW2 whole entry, looked up): as the sequence (Q96SW2 whole entry, looked up, one chain of several) above
smiles,measurement,setting,value
O=C1CCC(N2C(=O)c3cccc(NCc4cn(CCOCCOc5ccc(Cn6ccc7ccc(C(=O)NO)cc76)cc5)nn4)c3C2=O)C(=O)N1 (stereo unspecified),Activity,A549 [1],Active
same,Activity,Jurkat,Active
same,Activity,A549 [2],0.57%
same,viability at 20 µM,A549 [3],6.84%
same,Activity,A549 [4],Active
same,IC50,A549 [5],6.04 µM
same,Activity,[6],inactive
same,CI,A549 [7],0.65
same,Activity,[8],inactive
same,Activity,[9],inactive
same,viability at 2.5 µM,A549 [10],61.7%
same,Activity,A549 [11],Active
same,inhibition,A549 [12],Active
same,inhibition,A549 [13],Active
same,Activity,A549 [14],0%
same,Activity,[15],Active
same,Activity,A549 [16],Active
same,Activity,A549 [17],15.4%
same,Activity,[18],inactive
same,Activity,[19],inactive
same,Activity,[20],inactive
same,Activity,A549 [21],7.4%
same,Activity,A549 [22],1.52%
same,Activity,A549 [23],Active
same,Activity,A549 [24],Active
same,Activity,A549 [25],Active
same,Activity,[26],inactive
same,Activity,[27],Active
same,viability at 5 µM,A549 [28],54.9%
same,Activity,[29],Active
same,Activity,A549 [30],30%
